These results are taken from PMC10049699, “Identification and Empiric Evaluation of New Inhibitors of the Multidrug Transporter P-Glycoprotein (ABCB1)” (International Journal of Molecular Sciences, 2023).

Entries after “also recorded” stand apart in the source; their conditions may differ.

What all share (format): cell-based
Data set [1] deals with T1, ABCB1 (Homo sapiens, UniProt P08183).
T1 construct: expressed in transfected cells
Nature of the data set: OG-taxol efflux inhibition assay in Flp-In-ABCB1 cells, flow cytometry. The note with it: 100 nM test compound, OG-taxol 0.4 μM. The source says:
(§1) The four compounds are potent inhibitors of calcein-AM transport, but can they inhibit the efflux of chemotherapeutic drugs. To address this question, we first substituted a fluorescent derivative of the anticancer drug taxol for calcein-AM in a transport assay. […] We next tested whether the drugs would sensitise the Flp-In-ABCB1 cells to the clinically relevant form of taxol. The Flp-In-ABCB1 cells and their parental Flp-In cells were challenged over a three-day period with a range of concentrations of taxol in the presence and absence of test compounds at 100 nM concentration.
(§2) Flp-In-293 and Flp-In-ABCB1-12His cells were grown as monolayers in Dulbecco’s modified Eagle medium (DMEM; ThermoFisher Sci, Waltham, MA, USA) supplemented with 10% foetal bovine serum (FBS; ThermoFisher Sci, Waltham, MA, USA). The cell lines were incubated in a humidified incubator at a temperature of 37 °C in an atmosphere of 5% CO2. For the drug transport assay, cells (3 × 10^5 per well) were seeded in a 24-well, flat-bottomed plate (Sarstedt AG and Co., Nümbrecht, Germany) in 500 μL growth medium and incubated for 24 h, as above. The medium was aspirated, and the cells were washed with the transport buffer (phenol-red free DMEM, with 1% FBS). Next, the cells were incubated with calcein-AM (Invitrogen, Waltham, MA, USA) at 250 nM or OG-taxol (Invitrogen, Waltham, MA, USA) at 0.4 μM in 200 μL transport buffer for 30 min at 37 °C in the presence or absence of inhibitor (Tariquidar was purchased from MedChemExpress (Monmouth Junction, NJ, USA) and the test inhibitors were from Chembridge Corporation (San Diego, CA, USA); Table 2). All test compounds, tariquidar, and calcein-AM were solubilized in DMSO and further diluted in transport buffer for the transport assay. The concentration of DMSO in the final solution never exceeded 1.1%, at which concentration it has no apparent effect on the cells or the function of ABCB1. The medium was then aspirated, and cells were washed with ice-cold transport buffer and harvested with 25 μL trypsin (TrypLE express enzyme; ThermoFisher Sci, Waltham, MA, USA). The cells were recovered in a flow cytometry tube in 300 μL ice-cold transport buffer for flow cytometry using a BD LSR II flow cytometer (Becton Dickinson, Franklin Lakes, NJ, USA).
(A flow cytometer gives signals particle by particle.)

Data set [2] has as its system Flp-In parental cells. Kind of data set: Taxol challenge assay, parental cells / growth with inhibitor alone. The note with it: for effect on the growth of the Flp-In parental cells: test compound at 100 nM; for cytotoxicity of test compound: 100 nM, three-day (72 h) period, cell line not specified.
From the text: as §1
(§3) Flp-In-293 and Flp-In-ABCB1-12His cells (1 × 10^4) were seeded into a 96-well dish in 100 μL of medium, as above. Taxol (Cambridge Bioscience, Cambridge, UK) was added to a final concentration ranging from 0 nM to 10 μM in the presence or absence of inhibitors at 100 nM. The cells were cultured for a further 72 h, after which the medium was aspirated, and the cells were detached with 30 μL TrypLE Express (ThermoFisher Sci, Waltham, MA, USA) before quenching with 75 μL transport buffer and transfer to flow cytometry tubes. Cells of normal size and granularity, gated on the zero-drug condition and then applied to all samples, were counted in an ACEA NovoCyte flow cytometer (Agilent Technologies, Santa Clara, CA, USA). Cell number data were analysed in Graphpad PRISM (MacOS Version 9.4.1; GraphPad Software, San Diego, CA, USA). Curve fitting and statistical analysis was performed as above.

In data set [3] the test system is Flp-In-ABCB1 cells. Nature of the data set: Taxol challenge assay (resensitisation to taxol). Particulars: test compound at 100 nM, three-day period.
From the text: as §1, §3

Data set [4] has as its target T1, ABCB1. Kind of data set: calcein-AM drug transport (accumulation) assay in live Flp-In-ABCB1 cells, flow cytometry. Particulars: for IC50: Flp-In-ABCB1 cells, 30 min, n = 3 biological repeats, read-out: IC50 for inhibition of ABCB1 transport activity; for mean bottom plateau value of ABCB1 activity curve (efficacy): ratio of calcein content of ABCB1 non-expressing cells to whole population, full inhibition at 1.0; for effect on ABCB1: preliminary data, up to a concentration of 100 nM. On the procedure: We have previously integrated a single copy of pcDNA5/FRT-ABCB1-12His into the genome of Flp-In 293 cells to generate the Flp-In-ABCB1 cell line. To prevent possible drug–drug interactions during the transport assay, the Flp-In-ABCB1 cells were cultured in the absence of hygromycin, which is normally used to select for the continued expression of the hygromycin resistance gene carried on the pcDNA5/FRT plasmid. […] We also used the non-toxic cell-permeant dye calcein-AM as a transport substrate of ABCB1 [35, 36].
The concentration of calcein-AM was titrated until the ABCB1-positive cells began to accumulate calcein. […] This concentration was used in all further live cell transport assays. To test whether the assay could be applied to drug inhibition studies, we incubated the Flp-In-ABCB1 cells with calcein-AM in the presence of the third-generation inhibitor tariquidar.
These are the cells that no longer express ABCB1 (population […] in Figure 2B) due either to deletion of the plasmid from the genome or, perhaps more likely, silencing of the locus by chromatin condensation. These cells survive in the absence of hygromycin selection, but they are useful as they provide an internal negative control that can be easily identified in the single channel histogram at the lowest level of inhibitor. Transport activity of the ABCB1 was, thus, calculated using the fold difference in median drug accumulation by this ABCB1 non-expressing population G4 at the lowest concentration of inhibitor versus the median drug accumulation across all cells (population G5), as described in Equation (1). (1) Median drug accumulation in ABCB1 non−expressing cells G4/Median drug accumulation in the whole population G5
as §2
In order to correlate ABCB1 expression with calcein-AM efflux activity, a slightly different order was used, as described previously. Briefly, the cells were first detached from the well and incubated with saturating levels of primary antibody 4E3 (0.5 μg, Abcam, Cambridge, UK) in 100 μL transport buffer on ice for 30 min. […]

The nature of data set [5]: Taxol challenge assay (resensitisation to taxol). Particulars: human; Flp-In-ABCB1 (ABCB1 wt) cells, three-day culture, n = 3; read-out: IC50 for taxol (cell number) in the absence of inhibitor.
From the text: as §1, §3

[6] abbreviates: ratio of IC50 values, calcein-AM assay.

T1 sequence (P08183 whole entry): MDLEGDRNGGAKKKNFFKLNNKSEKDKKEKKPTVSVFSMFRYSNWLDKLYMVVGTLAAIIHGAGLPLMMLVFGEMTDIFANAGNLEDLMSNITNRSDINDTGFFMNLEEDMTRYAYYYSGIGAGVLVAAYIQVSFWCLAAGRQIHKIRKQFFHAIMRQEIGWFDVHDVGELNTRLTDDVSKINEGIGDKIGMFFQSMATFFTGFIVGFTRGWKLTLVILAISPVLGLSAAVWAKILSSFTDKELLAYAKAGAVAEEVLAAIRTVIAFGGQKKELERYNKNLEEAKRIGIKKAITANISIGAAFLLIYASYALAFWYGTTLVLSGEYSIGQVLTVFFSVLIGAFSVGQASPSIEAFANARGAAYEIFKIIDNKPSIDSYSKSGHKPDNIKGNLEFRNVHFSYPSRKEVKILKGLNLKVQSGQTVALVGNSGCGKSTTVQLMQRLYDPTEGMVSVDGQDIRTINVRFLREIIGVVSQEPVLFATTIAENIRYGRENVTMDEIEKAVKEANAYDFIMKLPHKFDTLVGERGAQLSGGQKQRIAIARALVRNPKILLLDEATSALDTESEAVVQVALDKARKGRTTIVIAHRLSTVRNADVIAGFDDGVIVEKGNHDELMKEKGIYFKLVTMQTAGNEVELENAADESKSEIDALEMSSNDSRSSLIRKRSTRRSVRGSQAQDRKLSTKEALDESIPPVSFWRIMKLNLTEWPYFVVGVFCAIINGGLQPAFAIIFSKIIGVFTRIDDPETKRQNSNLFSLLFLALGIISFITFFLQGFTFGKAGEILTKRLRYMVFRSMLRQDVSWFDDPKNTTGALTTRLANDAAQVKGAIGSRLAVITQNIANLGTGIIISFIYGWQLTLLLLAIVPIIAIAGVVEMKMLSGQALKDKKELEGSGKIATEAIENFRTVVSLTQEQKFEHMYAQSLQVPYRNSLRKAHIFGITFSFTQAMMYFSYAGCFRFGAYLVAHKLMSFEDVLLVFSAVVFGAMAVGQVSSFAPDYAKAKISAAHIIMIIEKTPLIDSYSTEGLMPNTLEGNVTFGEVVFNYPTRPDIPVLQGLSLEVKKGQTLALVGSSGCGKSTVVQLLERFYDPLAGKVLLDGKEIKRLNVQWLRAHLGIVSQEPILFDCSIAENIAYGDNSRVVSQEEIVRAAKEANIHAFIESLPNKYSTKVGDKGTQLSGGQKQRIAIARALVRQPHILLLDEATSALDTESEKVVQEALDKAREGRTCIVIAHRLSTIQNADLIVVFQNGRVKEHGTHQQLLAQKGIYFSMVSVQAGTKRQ

The term IC50 denotes the concentration needed to halve the response being measured. Take `O=C1CCC(CCNCc2ccccc2)N1Cc1ccc(-n2cccn2)cc1` (stereo not drawn) [A, 5-[2-(benzylamino)ethyl]-1-[4-(1H-pyrazol-1-yl)benzyl]-2-pyrrolidinone]: the “inhibition of OG-taxol efflux by ABCB1” value in data set [1] is on record as “inhibition of OG-taxol efflux”. For the same compound, the “effect on the growth of the Flp-In parental cells” value in data set [2] (three-day culture) was “no effect; also recorded: do not inhibit cell growth”. For the same compound, in data set [3], the “resensitisation of Flp-In-ABCB1 cells to taxol” value is on record as “resensitised”. Also, the IC50 in data set [4] (250 nM calcein-AM) was 1.4 nM. In data set [4] (setting [6]), the “fold less potent than tariquidar” value is listed as 12 fold. Further, in data set [4], the “mean bottom plateau value of ABCB1 activity curve (efficacy)” value (“mean bottom plateau value” below) is 1.0.

Take `Cc1ccc(CNC(=O)C2CCN(c3cc(C4CC(N)C4)nc(C)n3)CC2)cc1.Cl.Cl` (stereo not drawn) [B, 1-[6-(3-aminocyclobutyl)-2-methylpyrimidin-4-yl]-N-(4-methylbenzyl)piperidine-4-carboxamide dihydrochloride]: in data set [4] (250 nM calcein-AM), the “effect on ABCB1” value is “no effect”.

Regarding `Cc1nnc(NS(=O)(=O)c2ccc3c(c2)CN(C(=O)[C@H](N)C(C)C)CC3)s1` [C, N-(5-methyl-1,3,4-thiadiazol-2-yl)-2-D-valyl-1,2,3,4-tetrahydroisoquinoline-7-sulfonamide], the “effect on ABCB1” value in data set [4] (250 nM calcein-AM) is on record as “no effect”.

For the compound `Cc1cccc(N2CCN(CC(=O)Nc3nnc(CCN(C)C)s3)CC2)c1` [D, N-{5-[2-(dimethylamino)ethyl]-1,3,4-thiadiazol-2-yl}-2-[4-(3-methylphenyl)piperazin-1-yl]acetamide], in data set [1], the “inhibition of OG-taxol efflux by ABCB1” value was “inhibition of OG-taxol efflux”. Besides, the “effect on the growth of the Flp-In parental cells” value in data set [2] (three-day culture) is reported as “no effect; also recorded: do not inhibit cell growth”. Besides, the “resensitisation of Flp-In-ABCB1 cells to taxol” value in data set [3] is “resensitised”. Besides, the IC50 in data set [4] (250 nM calcein-AM) was 23.6 nM. In addition, in data set [4] (setting [6]), the “fold less potent than tariquidar” value is 200 fold and the “fold less potent than test compound 'A'” value is reported as 17 fold. Besides, the “mean bottom plateau value” value in data set [4] is reported as 0.58.

In the case of `Cc1ccc(N2CCN(c3cc(C4CC(N)C4)nc(N)n3)CC2)cc1C` (stereo not drawn) [E, 4-(3-aminocyclobutyl)-6-[4-(3,4-dimethylphenyl)piperazin-1-yl]pyrimidin-2-amine], the “inhibition of OG-taxol efflux by ABCB1” value in data set [1] is “inhibition of OG-taxol efflux”. Also, the “cytotoxicity of test compound” value in data set [2] was “did kill cells; also recorded: cytotoxic”. Moreover, the IC50 in data set [4] (250 nM calcein-AM) is 14.6 nM. Also, in data set [4] (setting [6]), the “fold less potent than tariquidar” value is 128 fold. The “mean bottom plateau value” value in data set [4] is on record as 0.93.

`Cc1cccc(N2CCN(c3cc(C4CC(N)C4)nc(C4CC4)n3)CC2)c1C.Cl.Cl` (stereo not drawn) [F, (3-{2-cyclopropyl-6-[4-(2,3-dimethylphenyl)-1-piperazinyl]-4-pyrimidinyl}cyclobutyl)amine dihydrochloride]: the “inhibition of OG-taxol efflux by ABCB1” value in data set [1] was “inhibition of OG-taxol efflux”. The “cytotoxicity of test compound” value in data set [2] is recorded as “did kill cells; also recorded: cytotoxic”. The 50% inhibitory concentration (IC50) in data set [4] (250 nM calcein-AM) was 4.8 nM. In addition, in data set [4] (setting [6]), the “fold less potent than tariquidar” value is recorded as 42 fold. In addition, the “mean bottom plateau value” value in data set [4] is 0.36.

Turning to `COc1cc2c(cc1OC)CN(CCc1ccc(NC(=O)c3cc(OC)c(OC)cc3NC(=O)c3cnc4ccccc4c3)cc1)CC2` [Tariquidar, N-[2-[[4-[2-(6,7-dimethoxy-3,4-dihydro-1H-isoquinolin-2-yl)ethyl]phenyl]carbamoyl]-4,5-dimethoxyphenyl]quinoline-3-carboxamide, reference compound], the “inhibition of ABCB1 (calcein accumulation to level of parental Flp-In cells)” value in data set [4] (1 nM tariquidar, 250 nM calcein-AM) is “fully inhibited”. For the same compound, the half-inhibitory concentration (IC50) in data set [4] (250 nM calcein-AM) was 0.114 nM. For the same compound, the “mean bottom plateau value” value in data set [4] is listed as 0.78.

In the case of `CC(=O)O[C@H]1C(=O)[C@@]2(C)[C@H]([C@H](OC(=O)c3ccccc3)[C@]3(O)C[C@H](OC(=O)[C@H](O)[C@@H](NC(=O)c4ccccc4)c4ccccc4)C(C)=C1C3(C)C)[C@]1(OC(C)=O)CO[C@@H]1C[C@@H]2O` [taxol, reference compound], the IC50 in data set [2] (72 h, Flp-In parental cells, three-day culture, n = 3, read-out: IC50 for taxol (cell number) in the absence of inhibitor) was 5 nM. In addition, the half-inhibitory concentration (IC50) at 72 h in data set [5] is 125 nM.
